Assay results reported in ChEMBL document CHEMBL3627713, “Triazole linked mono carbonyl curcumin-isatin bifunctional hybrids as novel anti tubulin agents: Design, synthesis, biological evaluation and molecular modeling studies” (Bioorg Med Chem, 2015).

What was measured:
Type in all cases: functional
CAKI-1 = experiment: Cytotoxicity against human Caki1 cells assessed as growth inhibition at 50 uM after 48 hrs by sulforhodamine B assay relative to control; conditions: CAKI-1, 48 h, read-out: GI
PC-3 = experiment: Cytotoxicity against human PC3 cells assessed as growth inhibition at 50 uM after 48 hrs by sulforhodamine B assay relative to control; conditions: PC-3, 48 h, read-out: GI
[1] = Cytotoxicity against human MIAPaCa2 cells assessed as growth inhibition at 50 uM after 48 hrs by sulforhodamine B assay relative to control; conditions: MIA PaCa-2, 48 h, read-out: GI
HeLa = experiment: Cytotoxicity against human HeLa cells assessed as growth inhibition at 50 uM after 48 hrs by sulforhodamine B assay relative to control; conditions: read-out: GI
COLO 205 = experiment: Cytotoxicity against human COLO205 cells assessed as growth inhibition at 50 uM after 48 hrs by sulforhodamine B assay relative to control; conditions: COLO 205, 48 h, read-out: GI
HCT-116 = experiment: Cytotoxicity against human HCT116 cells assessed as growth inhibition at 50 uM after 48 hrs by sulforhodamine B assay relative to control; conditions: HCT-116, 48 h, read-out: GI
A549 = experiment: Cytotoxicity against human A549 cells assessed as growth inhibition at 50 uM after 48 hrs by sulforhodamine B assay relative to control; conditions: A549, 48 h, read-out: GI
THP-1 = experiment: Cytotoxicity against human THP1 cells assessed as growth inhibition at 50 uM after 48 hrs by sulforhodamine B assay relative to control; conditions: THP-1, 48 h, read-out: GI

| SMILES | inhibition of growth at 50 µM (CAKI-1) [%] | inhibition of growth at 50 µM (PC-3) [%] | inhibition of growth at 50 µM [1] [%] | inhibition of growth at 50 µM (HeLa) [%] | inhibition of growth at 50 µM (COLO 205) [%] | inhibition of growth at 50 µM (HCT-116) [%] | inhibition of growth at 50 µM (A549) [%] | inhibition of growth at 50 µM (THP-1) [%] |
| --- | --- | --- | --- | --- | --- | --- | --- | --- |
| COc1cc(/C=C/C(=O)/C=C/c2ccccc2)ccc1OCc1cn(CCN2C(=O)C(=O)c3cc(Br)ccc32)nn1 | 12 | 50 | 16 | 14 | 51 | 56 | 11 | 54 |
| COc1cc(/C=C/C(=O)/C=C/c2cccc3ccccc23)ccc1OCc1cn(CCN2C(=O)C(=O)c3cc(Br)ccc32)nn1 |  | 37 |  |  | 40 | 44 |  | 40 |
| COc1cc(/C=C/C(=O)/C=C/c2cccs2)ccc1OCc1cn(CCN2C(=O)C(=O)c3cc(Cl)ccc32)nn1 |  | 37 |  |  | 35 | 44 |  | 38 |
| COc1cc(/C=C/C(=O)/C=C/c2ccc([N+](=O)[O-])cc2)ccc1OCc1cn(CCN2C(=O)C(=O)c3cc(Br)ccc32)nn1 |  | 10 |  |  | 10 | 10 |  |  |
| COc1cc(/C=C/C(=O)/C=C/c2ccco2)ccc1OCc1cn(CCN2C(=O)C(=O)c3cc(Cl)ccc32)nn1 |  | 40 |  |  | 39 | 47 |  | 41 |
| COc1cc(/C=C/C(=O)/C=C/c2ccc(Br)cc2)ccc1OCc1cn(CCN2C(=O)C(=O)c3cc(Cl)ccc32)nn1 |  | 23 |  |  | 20 | 24 |  | 25 |
| COc1ccccc1/C=C/C(=O)/C=C/c1ccc(OCc2cn(CCN3C(=O)C(=O)c4cc(Br)ccc43)nn2)c(OC)c1 |  | 42 |  |  | 47 | 50 |  | 43 |
| COc1cccc(/C=C/C(=O)/C=C/c2ccc(OCc3cn(CCN4C(=O)C(=O)c5cc(Br)ccc54)nn3)c(OC)c2)c1 |  | 51 |  |  | 56 | 57 |  | 54 |
| COc1cc(/C=C/C(=O)/C=C/c2ccco2)ccc1OCc1cn(CCN2C(=O)C(=O)c3cc(Br)ccc32)nn1 |  | 31 |  |  | 33 | 39 |  | 37 |
| COc1cc(/C=C/C(=O)/C=C/c2cccs2)ccc1OCc1cn(CCN2C(=O)C(=O)c3cc(Br)ccc32)nn1 |  | 28 |  |  | 30 | 34 |  | 31 |
| COc1cc(/C=C/C(=O)/C=C/c2cccc(Br)c2)ccc1OCc1cn(CCN2C(=O)C(=O)c3cc(Cl)ccc32)nn1 |  | 14 |  |  | 10 | 19 |  | 12 |
| COc1cc(/C=C/C(=O)/C=C/c2ccc(Cl)cc2)ccc1OCc1cn(CCN2C(=O)C(=O)c3ccccc32)nn1 |  | 45 |  |  | 50 | 51 |  | 49 |
| COc1cc(/C=C/C(=O)/C=C/c2ccccc2)ccc1OCc1cn(CCN2C(=O)C(=O)c3cc(Cl)ccc32)nn1 | 13 | 58 | 13 | 14 | 63 | 68 | 21 | 65 |
| COc1cc(/C=C/C(=O)/C=C/c2cccc(Br)c2)ccc1OCc1cn(CCN2C(=O)C(=O)c3ccccc32)nn1 |  | 35 |  |  | 36 | 42 |  | 40 |
| COc1ccccc1/C=C/C(=O)/C=C/c1ccc(OCc2cn(CCN3C(=O)C(=O)c4cc(Cl)ccc43)nn2)c(OC)c1 |  | 42 |  |  | 47 | 50 | 11 | 43 |
| COc1cc(/C=C/C(=O)/C=C/c2cccc([N+](=O)[O-])c2)ccc1OCc1cn(CCN2C(=O)C(=O)c3ccccc32)nn1 |  | 20 |  |  | 22 | 25 |  | 24 |
| COc1ccc(/C=C/C(=O)/C=C/c2ccc(OCc3cn(CCN4C(=O)C(=O)c5cc(Br)ccc54)nn3)c(OC)c2)cc1 |  | 57 | 10 | 10 | 59 | 65 |  | 60 |
| COc1cc(/C=C/C(=O)/C=C/c2ccc(Cl)cc2)ccc1OCc1cn(CCN2C(=O)C(=O)c3cc(Cl)ccc32)nn1 |  | 25 |  |  | 29 | 36 |  | 30 |
| COc1cc(/C=C/C(=O)/C=C/c2ccc(Cl)cc2)ccc1OCc1cn(CCN2C(=O)C(=O)c3cc(Br)ccc32)nn1 |  | 23 |  |  | 24 | 29 |  | 25 |
| COc1cc(/C=C/C(=O)/C=C/c2cccc(Br)c2)ccc1OCc1cn(CCN2C(=O)C(=O)c3cc(Br)ccc32)nn1 |  | 13 |  |  | 11 | 13 |  | 12 |
| COc1ccc(/C=C/C(=O)/C=C/c2ccc(OCc3cn(CCN4C(=O)C(=O)c5cc(Br)ccc54)nn3)c(OC)c2)cc1OC | 10 | 61 | 12 | 12 | 63 | 69 | 10 | 65 |
| COc1cc(/C=C/C(=O)/C=C/c2ccc(Br)cc2)ccc1OCc1cn(CCN2C(=O)C(=O)c3cc(Br)ccc32)nn1 |  | 17 |  |  | 19 | 20 |  | 21 |
| COc1cc(/C=C/C(=O)/C=C/c2ccc([N+](=O)[O-])cc2)ccc1OCc1cn(CCN2C(=O)C(=O)c3cc(Cl)ccc32)nn1 |  | 10 |  |  |  | 11 |  |  |
| COc1cc(/C=C/C(=O)/C=C/c2ccc([N+](=O)[O-])cc2)ccc1OCc1cn(CCN2C(=O)C(=O)c3ccccc32)nn1 |  | 33 |  |  | 35 | 39 |  | 35 |
| COc1cc(/C=C/C(=O)/C=C/c2ccc(Br)cc2)ccc1OCc1cn(CCN2C(=O)C(=O)c3ccccc32)nn1 |  | 44 |  |  | 47 | 49 |  | 48 |
| COc1cccc(/C=C/C(=O)/C=C/c2ccc(OCc3cn(CCN4C(=O)C(=O)c5cc(Cl)ccc54)nn3)c(OC)c2)c1 |  | 51 |  | 10 | 52 | 58 | 13 | 55 |
